Laboratory results published in patent publication US10945435B2, “Imidazopyrimidine derivatives with sulfur containing phenyl and pyridyl substituents” (SYNGENTA PARTICIPATIONS AG, priority 2017, dated 2021).

Key:
Type in all cases: in vivo
[1] = system: Diabrotica balteata (Corn Root Worm); experiment: Example B2 Diabrotica balteata mortality and growth inhibition; details: 96 h, application rate of 200 ppm, L2 larvae on sprayed maize sprouts, 4 days after infestation, read-out: effect in at least one of the two categories (mortality or growth inhibition)
Description: Diabrotica balteata (Corn Root Worm)
(§1) Maize sprouts placed onto an agar layer in 24-well microtiter plates were treated with aqueous test solutions prepared from 10,000 ppm DMSO stock solutions by spraying. After drying, the plates were infested with L2 larvae (6 to 10 per well). The samples were assessed for mortality and growth inhibition in comparison to untreated samples 4 days after infestation.

[2] = system: Spodoptera littoralis (Egyptian Cotton Leaf Worm); experiment: Example B16 Spodoptera littoralis feeding/contact activity; details: foliar, 72 h, application rate of 200 ppm, L1 larvae on sprayed cotton leaf discs, 3 days after infestation
Description: Spodoptera littoralis (Egyptian Cotton Leaf Worm): Feeding/Contact Activity
Cotton leaf discs were placed onto agar in 24-well microtiter plates and sprayed with aqueous test solutions prepared from 10,000 ppm DMSO stock solutions. After drying the leaf discs were infested with five L1 larvae. The samples were assessed for mortality 3 days after infestation.

[3] = system: Plutella xylostella (Diamond Back Moth); experiment: Example B12 Plutella xylostella feeding/contact activity; details: 120 h, application rate of 200 ppm, L2 larvae on treated artificial diet, 5 days after infestation
Description: Plutella xylostella (Diamond Back Moth): Feeding/Contact Activity
(§2) 24-well microtiter plates with artificial diet were treated with aqueous test solutions prepared from 10,000 ppm DMSO stock solutions by pipetting. After drying, the plates were infested with L2 larvae (10 to 15 per well). The samples were assessed for mortality 5 days after infestation.

[4] = system: Diabrotica balteata (Corn Root Worm); experiment: Example B4 Diabrotica balteata mortality; details: 96 h, application rate of 200 ppm, L2 larvae on sprayed maize sprouts, 4 days after infestation
Description: Diabrotica Balteata (Corn Root Worm):
as §1, with “mortality” for “mortality and growth inhibition in comparison to untreated samples”

[5] = system: Euschistus heros (Neotropical Brown Stink Bug); experiment: Example B7 Euschistus heros feeding/contact activity; details: 120 h, application rate of 200 ppm, N2 nymphs on sprayed soybean leaves, 5 days after infestation
Description: Euschistus heros (Neotropical Brown Stink Bug): Feeding/Contact Activity
(§3) Soybean leaves on agar in 24-well microtiter plates were sprayed with aqueous test solutions prepared from 10,000 ppm DMSO stock solutions. After drying the leaves were infested with N2 nymphs. The samples were assessed for mortality 5 days after infestation.

[6] = system: Euschistus heros (Neotropical Brown Stink Bug); experiment: Example B5 Euschistus heros mortality and growth inhibition; details: 120 h, application rate of 200 ppm, N2 nymphs on sprayed soybean leaves, 5 days after infestation, read-out: effect in at least one of the two categories (mortality or growth inhibition)
Description: Euschistus heros (Neotropical Brown Stink Bug)
as §3, with “mortality and growth inhibition in comparison to untreated samples” for “mortality”

[7] = system: Euschistus heros (Neotropical Brown Stink Bug); experiment: Example B6 Euschistus heros growth inhibition; details: 120 h, application rate of 200 ppm, N2 nymphs on sprayed soybean leaves, 5 days after infestation
Description: Euschistus heros (Neotropical Brown Stink Bug): Growth Inhibition
as §3, with “growth inhibition in comparison to untreated samples” for “mortality”, “infestation. Control of Euschistus heros by a test sample is given when the growth inhibition is higher than the untreated sample.” for “infestation.”

[8] = system: Plutella xylostella (Diamond Back Moth); experiment: Example B13 Plutella xylostella mortality and growth inhibition; details: 120 h, application rate of 200 ppm, L2 larvae on treated artificial diet, 5 days after infestation, read-out: effect in at least one of the two categories (mortality or growth inhibition)
Description: Plutella xylostella (Diamond Back Moth)
as §2, with “mortality and growth inhibition in comparison to untreated samples” for “mortality”

[9] = system: Spodoptera littoralis (Egyptian Cotton Leaf Worm); experiment: Example B14 Spodoptera littoralis anti-feeding activity; details: foliar, 72 h, application rate of 200 ppm, L1 larvae on sprayed cotton leaf discs, 3 days after infestation, read-out: control (anti-feeding effect)
[10] = system: Myzus persicae (Green Peach Aphid); experiment: Example B9 Myzus persicae feeding/contact activity; details: foliar, 144 h, application rate of 200 ppm, mixed-age aphids on sprayed sunflower leaf discs, 6 days after infestation
Description: Myzus persicae (Green Peach Aphid): Feeding/Contact Activity
Sunflower leaf discs were placed onto agar in a 24-well microtiter plate and sprayed with aqueous test solutions prepared from 10,000 ppm DMSO stock solutions. After drying, the leaf discs were infested with an aphid population of mixed ages. The samples were assessed for mortality 6 days after infestation.

[11] = system: Frankliniella occidentalis (Western Flower Thrips); experiment: Example B8 Frankliniella occidentalis feeding/contact activity; details: foliar, 168 h, application rate of 200 ppm, mixed-age population on sprayed sunflower leaf discs, 7 days after infestation
Description: Frankliniella occidentalis (Western Flower Thrips): Feeding/Contact Activity
Sunflower leaf discs were placed on agar in 24-well microtiter plates and sprayed with aqueous test solutions prepared from 10,000 DMSO stock solutions. After drying the leaf discs were infested with a Frankliniella population of mixed ages. The samples were assessed for mortality 7 days after infestation.

[12] = system: Bemisia tabaci (Cotton White Fly); experiment: Example B1 Bemisia tabaci feeding/contact activity; details: foliar, 144 h, application rate of 200 ppm, adult white flies on sprayed cotton leaf discs, 6 days after incubation
Description: Bemisia tabaci (Cotton White Fly): Feeding/Contact Activity
Cotton leaf discs were placed on agar in 24-well microtiter plates and sprayed with aqueous test solutions prepared from 10,000 ppm DMSO stock solutions. After drying the leaf discs were infested with adult white flies. The samples were checked for mortality 6 days after incubation.

[13] = system: Myzus persicae (Green Peach Aphid); experiment: Example B10 Myzus persicae systemic activity; details: 144 h, test rate of 24 ppm, roots of infested pea seedlings in test solution, 6 days
Description: Myzus persicae (Green Peach Aphid). Systemic Activity
Roots of pea seedlings infested with an aphid population of mixed ages were placed directly into aqueous test solutions prepared from 10,000 DMSO stock solutions. The samples were assessed for mortality 6 days after placing seedlings into test solutions.

CCS(=O)(=O)c1cc(OCC(C)C)cnc1-c1cn2cnc(C(F)(F)F)cc2n1 [Compound P14, 2-(3-ethylsulfonyl-5-isobutoxy-2-pyridyl)-7-(trifluoromethyl)imidazo[1,2-c]pyrimidine]
≥ 80%: percent effect (mortality or growth inhibition) at 200 ppm [1] | mortality at 200 ppm [2] | mortality at 200 ppm [3] | mortality at 200 ppm [4] | mortality at 200 ppm [5] | percent effect (mortality or growth inhibition) at 200 ppm [6] | inhibition at 200 ppm [7] | percent effect (mortality or growth inhibition) at 200 ppm [8] | pest or weed control at 200 ppm [9] | mortality at 200 ppm [10]

CCS(=O)(=O)c1cc(OC[S+](C)[O-])cnc1-c1cn2cnc(C(F)(F)F)cc2n1 (centres unmarked) [Compound P22, 2-[3-ethylsulfonyl-5-(methylsulfinylmethoxy)-2-pyridyl]-7-(trifluoromethyl)imidazo[1,2-c]pyrimidine]
≥ 80%: mortality at 200 ppm [11] | mortality at 200 ppm [12] | mortality at 200 ppm [5] | percent effect (mortality or growth inhibition) at 200 ppm [6] | inhibition at 200 ppm [7] | mortality at 24 ppm [13] | mortality at 200 ppm [10]
